The values that follow are results of earlier work, collected in patent US20070141147A1, “SEQUENTIAL RELEASE PHARMACEUTICAL FORMULATIONS” (Auriga Laboratories, Inc., priority 2005, published 2007).

Where a name gives a salt, the structure may show the parent alone.

The conditions of data set [1]: water and alcohol.
For data set [2] the following is noted: in vivo.

In the case of `CNCC(O)c1cccc(O)c1` (stereo in doubt) [Phenylephrine hydrochloride, (S)-3-hydroxy-[alpha][(methylamino)methylbenzenemethanol hydrochloride], the solubility entry in data set [1] is recorded as “freely soluble”. For the compound `COc1ccccc1OCC(O)CO` (stereo not drawn) [Guaifenesin, 3-(2-methoxyphenoxy)-1,2-propanediol], the solubility result in data set [1] is reported as “soluble”. Turning to `C[N+]1(C)[C@@H]2C[C@@H](OC(=O)[C@H](CO)c3ccccc3)C[C@H]1[C@@H]1O[C@@H]12` [methscopolamine], the plasma half-life result in data set [2] is “relatively short”.
